Experimental findings from patent publication US20180338980A1, “AROMATIC SULFONAMIDE DERIVATIVES” (BAYER PHARMA AKTIENGESELLSCHAFT, priority 2015, published 2018) are described below.

The target in assay [1] is T1, P2X4 (Homo sapiens, UniProt Q99571).
T1 sequence (Q99571 1-388): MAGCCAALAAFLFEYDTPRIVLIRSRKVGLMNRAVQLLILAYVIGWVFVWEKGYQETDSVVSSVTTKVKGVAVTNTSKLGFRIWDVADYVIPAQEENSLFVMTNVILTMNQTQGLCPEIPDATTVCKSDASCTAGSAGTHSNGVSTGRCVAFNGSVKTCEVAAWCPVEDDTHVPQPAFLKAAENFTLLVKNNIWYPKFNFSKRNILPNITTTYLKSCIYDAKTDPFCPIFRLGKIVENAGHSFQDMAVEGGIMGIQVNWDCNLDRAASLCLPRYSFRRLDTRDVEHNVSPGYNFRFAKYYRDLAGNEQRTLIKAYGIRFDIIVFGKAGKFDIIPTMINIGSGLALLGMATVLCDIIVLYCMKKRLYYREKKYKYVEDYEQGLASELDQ
The assay is described as follows: Assay B: human P2X4 receptor cell line, mitochondrial photina luminescence (agonist Bz-ATP at EC50). In kind it is cell-based. The arrangement: host or cells: HEK 293 (recombinant, constitutively expressing; with mitochondrial photina in Assay B). Particulars: HEK human P2X4 cell line, photina luminescence, agonist Bz-ATP at EC50, average; for Emax: read-out: human P2X4 Assay B avg Efficacy. In short, it runs like this: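 Recombinant cell line constitutively expressing human P2X4 and mitochondrial photina photoprotein, reconstituted with coelenterazine. Receptor stimulated with Bz-ATP at EC50; calcium influx read immediately as luminescence.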

Assay [2] addresses T1, P2X4. The assay can be described thus: Assay A: human P2X4 receptor cell line, FLIPR calcium assay (Fluo-8, agonist Bz-ATP at EC80). The class given is cell-based. Also noted: host or cells: HEK 293 (recombinant, constitutively expressing; with mitochondrial photina in Assay B). Particulars: HEK human P2X4 cells, Fluo-8 FLIPR; for IC50: Bz-ATP at EC80, average values; for Emax: percentage of maximal inhibition, read-out: human P2X4 Assay A avg Efficacy. In short, it runs like this:
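HEK cells expressing human P2X4 (20,000/well, plated ~20 h earlier) loaded 30 min with 5 μM Fluo-8 in HBSS/HEPES buffer with 1.8 mM CaCl2, 1 mM MgCl2, 2 mM probenecid, pH 7.4. Antagonist preincubated 30 min at room temperature (0.5% DMSO), then Bz-ATP at EC80. Peak fluorescence over 120 s, normalized to DMSO; triplicate IC50 and Hill fits.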

By IC50 is commonly meant the concentration that inhibits the measured activity by half.

On to `CC1(COc2ccc(NC(=O)Cc3ccccc3Cl)cc2S(N)(=O)=O)CCOCC1` [Example 053, 2-(2-Chlorophenyl)-N-{4-[(4-methyltetrahydro-2H-pyran-4-yl)methoxy]-3-sulfamoylphenyl}acetamide], for which, in assay [1], the IC50 was determined as 859 nM and the Emax turned out to be 84%. In addition, in assay [2], the IC50 was 197 nM and the Emax was 90%.
The corresponding values for `NS(=O)(=O)c1cc(NC(=O)Cc2ccccc2Cl)ccc1OCC1(F)CCOCC1` [Example 054, 2-(2-chlorophenyl)-N-{4-[(4-fluorotetrahydro-2H-pyran-4-yl)methoxy]-3-sulfamoylphenyl}acetamide] are 578 nM, 84%, 68 nM and 94%.
Taken in the same sequence, the figures for `NS(=O)(=O)c1cc(NC(=O)Cc2ccccc2Cl)ccc1Oc1cccc(Br)c1` [Example 059, N-[4-(3-Bromophenoxy)-3-sulfamoylphenyl]-2-(2-chlorophenyl)acetamide] were 75 nM, 70%, 45 nM and 85%.
For the molecule `Cc1nc(-c2cccc(Oc3ccc(NC(=O)Cc4ccccc4Cl)cc3S(N)(=O)=O)c2)cs1` [Example 061, 2-(2-Chlorophenyl)-N-{4-[3-(2-methyl-1,3-thiazol-4-yl)phenoxy]-3-sulfamoylphenyl}acetamide], in assay [1], the IC50 worked out at 147 nM and the Emax worked out at 72%. Also, in assay [2], the IC50 is 53 nM and the Emax was determined as 88%.
As for `NS(=O)(=O)c1cc(NC(=O)Cc2ccccc2Cl)ccc1Oc1ccc(C2CCC(=O)N2)cc1` (stereo not shown) [Example 062, 2-(2-Chlorophenyl)-N-{4-[4-(5-oxopyrrolidin-2-yl)phenoxy]-3-sulfamoylphenyl}acetamide], the IC50 in assay [1] amounted to 455 nM; in assay [2], 560 nM. The Emax in assay [1] is 70%; in assay [2], 95%.
Taken in the same sequence, the figures for `NS(=O)(=O)c1cc(NC(=O)Cc2ccccc2Cl)ccc1Oc1ccc(N2CCOC2=O)cc1` [Example 063, 2-(2-chlorophenyl)-N-{4-[4-(2-oxo-1,3-oxazolidin-3-yl)phenoxy]-3-sulfamoylphenyl}acetamide] were 221 nM, 90 nM, 70% and 82%.
In the case of `NS(=O)(=O)c1cc(NC(=O)Cc2ccccc2Cl)ccc1Oc1ccccc1Cl` [Example 065, N-[4-(2-Chlorophenoxy)-3-sulfamoylphenyl]-2-(2-chlorophenyl)acetamide], the Emax was determined as 70% in assay [1] and 81% in assay [2].
Take `NS(=O)(=O)c1cc(NC(=O)Cc2ccccc2Cl)ccc1Oc1ccc(Cl)cc1` [Example 066, N-[4-(4-Chlorophenoxy)-3-sulfamoylphenyl]-2-(2-chlorophenyl)acetamide]: in assay [1], the IC50 was 129 nM and the Emax was found to be 46%. For the same molecule, in assay [2], the IC50 is above 25000 nM and the Emax was determined as 51%.
Taken in the same sequence, the figures for `NS(=O)(=O)c1cc(NC(=O)Cc2ccccc2)ccc1Oc1ccc(Cl)cc1` [Example 077, N-[4-(4-Chlorophenoxy)-3-sulfamoylphenyl]-2-phenylacetamide] were 201 nM, 53%, 8340 nM and 54%.
Take `NS(=O)(=O)c1cc(NC(=O)Cc2ccccc2Cl)ccc1Oc1cnc(Cl)nc1` [Example 079]: the Emax in assay [1] turned out to be 40%; in assay [2], 54%.
As for `NS(=O)(=O)c1cc(NC(=O)Cc2ccccc2Cl)ccc1Oc1cncc(F)c1` [Example 080, 2-(2-Chlorophenyl)-N-{4-[(5-fluoropyridin-3-yl)oxy]-3-sulfamoylphenyl}acetamide], in assay [1], the IC50 came out at 140 nM and the Emax worked out at 51%. In addition, in assay [2], the IC50 stood at 44 nM and the Emax was 65%.
Taken in the same sequence, the figures for `NS(=O)(=O)c1cc(NC(=O)Cc2ccccc2Cl)ccc1Oc1ccc(Cl)nc1` [Example 081, 2-(2-Chlorophenyl)-N-{4-[(6-chloropyridin-3-yl)oxy]-3-sulfamoylphenyl}acetamide] were above 16000 nM, 36%, 65 nM and 43%.
In the case of `NS(=O)(=O)c1cc(NC(=O)Cc2ccccc2Cl)c(Cl)cc1Oc1cccc(Cl)c1` [Example 082, N-[2-chloro-4-(3-chlorophenoxy)-5-sulfamoylphenyl]-2-(2-chlorophenyl)acetamide], in assay [1], the IC50 is above 50000 nM and the Emax was 33%. Moreover, in assay [2], the IC50 was above 25000 nM and the Emax came to 31%.
With `NS(=O)(=O)c1cc(NC(=O)Cc2cccc(F)c2Cl)c(Cl)cc1Oc1cccc(Cl)c1` [Example 083, N-[2-chloro-4-(3-chlorophenoxy)-5-sulfamoylphenyl]-2-(2-chloro-3-fluorophenyl)acetamide], the Emax in assay [1] was found to be 35%. Besides, in assay [2], the IC50 is above 25000 nM and the Emax is 39%.
With `NS(=O)(=O)c1cc(NC(=O)Cc2ccc(F)cc2)ccc1Oc1cccc(Cl)c1` [Example 085, N-[4-(3-Chlorophenoxy)-3-sulfamoylphenyl]-2-(4-fluorophenyl)acetamide], the Emax in assay [1] turned out to be 59%; in assay [2], 86%.
`NS(=O)(=O)c1cc(NC(=O)Cc2ccccc2C(F)F)ccc1Oc1cccc(Cl)c1` [Example 089, N-[4-(3-Chlorophenoxy)-3-sulfamoylphenyl]-2-[2-(difluoromethyl)phenyl]acetamide]: in assay [1], the IC50 was 145 nM and the Emax was 66%. Further, in assay [2], the IC50 turned out to be 102 nM and the Emax amounted to 85%.
The corresponding values for `NS(=O)(=O)c1cc(NC(=O)Cc2ccccc2Br)ccc1Oc1cccc(Cl)c1` [Example 091, 2-(2-Bromophenyl)-N-[4-(3-chlorophenoxy)-3-sulfamoylphenyl]acetamide] are 53 nM, 58%, 27 nM and 75%.
The corresponding values for `Cc1ccc(CC(=O)Nc2ccc(Oc3cccc(Cl)c3)c(S(N)(=O)=O)c2)c(Cl)c1` [Example 095, 2-(2-Chloro-4-methylphenyl)-N-[4-(3-chlorophenoxy)-3-sulfamoylphenyl]acetamide] are 99 nM, 63%, 137 nM and 64%.
In the case of `Cc1cccc(Cl)c1CC(=O)Nc1ccc(Oc2cccc(Cl)c2)c(S(N)(=O)=O)c1` [Example 096, 2-(2-Chloro-6-methylphenyl)-N-[4-(3-chlorophenoxy)-3-sulfamoylphenyl]acetamide], in assay [1], the concentration for half-maximal inhibition (IC50) is 27 nM and the Emax is 59%. In assay [2], the IC50 came out at 78 nM and the Emax turned out to be 72%.
As for `Cc1ccc(Cl)c(CC(=O)Nc2ccc(Oc3cccc(Cl)c3)c(S(N)(=O)=O)c2)c1` [Example 097, 2-(2-Chloro-5-methylphenyl)-N-[4-(3-chlorophenoxy)-3-sulfamoylphenyl]acetamide], in assay [1], the IC50 was 123 nM and the Emax was 78%. Besides, in assay [2], the IC50 amounted to 119 nM and the Emax is 84%.
